Counter-ions that a name gives are not always drawn.
Assays:
mice [1] = assay: Antitussive test of Naringenin, spray by high concentration ammonia (Example 30); assay type: in vivo; conditions: for R Value: EDT50 of the treatment / EDT50 of the control x 100%; for EDT50: mice, oral, dose 0.2 (mg/20g), spray one hour later
Description: 1. Animal: 120 healthy male mice weighing 19.5-22.1g was grouped into 8 groups random after labeled, which was selected from 130 male mice weighing 19.3-22.6g. Every group was 15 mice. Eight group were set including negative control group, positive control group, high dose group of Naringenin, middle dose group of Naringenin, low dose group of Naringenin, high dose group of sodium salt of Naringenin, middle dose group of sodium salt of Naringenin, low dose group of sodium salt of Naringenin.
• 1) Blank control group: physiological saline, 0.9% NaCl; • 2) Positive control group: 30mg Dextromethorphan Hydrobromide was dissolve into 20 ml physiological saline and the sample concentration was 1.5 mg/ml to obtain the solution for positive control. • 3) low dose group of Naringenin: weighting out the appropriate amount of Naringenin and dissolving it in physiological saline, then the sample concentration was 0.5 mg/ml. • 4) middle dose group of Naringenin: weighting out the appropriate amount of Naringenin and dissolving it in physiological saline, then the sample concentration was 1.5mg/ml. • 5) high dose group of Naringenin: weighting out the appropriate amount of Naringenin and dissolving it in physiological saline, then the sample concentration was 4.5 mg/ml. • 6) low dose group of sodium salt of Naringenin: weighting out the appropriate amount of sodium salt of Naringenin and dissolving it in physiological saline, then the sample concentration was 0.5 mg/ml. • 7) middle dose group of sodium salt of Naringenin: weighting out the appropriate amount of sodium salt of Naringenin and dissolving it in physiological saline, then the sample concentration was 1.5 mg/ml. • 8) high dose group of sodium salt of Naringenin: weighting out the appropriate amount of sodium salt of Naringenin and dissolving it in physiological saline, then the sample concentration was 4.5 mg/ml.
Animals were oral administered, and were sprayed one hour later. After the spray took out the animals and observed the tussive action. Observed the time of tussis in one minutes, if it appeared typical tussis three times in one minutes(shrinking the abdomen muscle or shrinking chest, puffing mouth at the same time, sometimes appearing tussive sound), we consider it "appearing tussis", otherwise "no tussis".
We calculated the spraying time that half of mice were tusisive by sequential method. And calculated the R, the drug was provided with effect of relieve a cough if R>130%. The drug was provided with remarkable effect of relieve a cough if R>150%. Underside is expressions: R=(EDT50 of the treatment)/(EDT50 of the control)× 100% [formula] EDT50=log^-1c/n ('n' is the number of animal, 'c' is the sum of 'rx' value, 'r' is the number of animal in every group, 'x' is the logarithm of dose(namely spray time).)

mice [2] = assay: Dispel phlegm test of Naringin, Phenol Red excretion in trachea (Example 29); assay type: in vivo; conditions: for Dispel phlegm ratio: group given drug / blank control group x 100%; for Excretion quantity of Phenol Red / Rectified excretion quantity of Phenol Red: mice, oral, X±S; for Rectified excretion quantity of Phenol Red: excretion quantity / weight of animal
Procedure: 1. […] Every group was 10 animals. Eight group were set including negative control group, positive control group, high dose group of Naringin, middle dose group of Naringin, low dose group of Naringin, high dose group of sodium salt of Naringin, middle dose group of sodium salt of Naringin, low dose group of sodium salt of Naringin. […]
• 1) Blank control group: physiological saline, 0.9% NaCl; • 2) Positive control group: 0.2g Tankejing was dissolve into 10 ml physiological saline and the sample concentration was 20 mg/ml to obtain the solution for positive control. • 3) low dose group of Naringin: 0.5 mg/ml solution of Naringin was prepared by weighting out the appropriate amount of 5 mg Naringin and dissolving it by ultrasonication in 10 ml physiological saline. • 4) middle dose group of Naringin: 1.5 mg/ml solution of Naringin was prepared by weighting out the appropriate amount of 15 mg Naringin and dissolving it by ultrasonication in 10 ml physiological saline. • 5) high dose group of Naringin: 4.5 mg/ml solution of Naringin was prepared by weighting out the appropriate amount of 45 mg Naringin and dissolving it by ultrasonication in 10 ml physiological saline. • 6) low dose group of sodium salt of Naringin: 0.5 mg/ml solution of sodium salt of Naringin was prepared by weighting out the appropriate amount of 5 mg sodium salt of Naringin and dissolving it by ultrasonication in 10 ml physiological saline. • 7) middle dose group of sodium salt of Naringin: 1.5 mg/ml solution of sodium salt of Naringin was prepared by weighting out the appropriate amount of 15 mg sodium salt of Naringin and dissolving it by ultrasonication in 10 ml physiological saline. • 8) high dose group of sodium salt of Naringin: 4.5 mg/ml solution of sodium salt of Naringin was prepared by weighting out the appropriate amount of 45 mg sodium salt of Naringin and dissolving it by ultrasonication in 10 ml physiological saline.
The calibration curve was calculated by concentration of Phenol Red as y-axis and OD value as x-axis. And the excretion account of Phenol Red in mice was quantitated by calibration curve. • 2) Animals were fasted for 12 hr before dosing. • 3) Animals were oral administered with labeled number, each animal was administered with 3 min and each group was accomplished in 30 min. • 4) After administered 30 min, every animal was injected 2 ml 5% Phenol Red solution via celiac injection. The time of every animal was 3 min. • 5): Every animal was executed with 3 min interval after celiac injection 30 min, and animal trachea was peeled off with forceps after neck skin sniped, which was riveted on operating table. • 6): plasma and Phenol Red adhered to trachea ektexine was sweeped by 0.9% NaCl solution with an injector. And filter paper was used to blot up the solution. • 7): Scissors cut down the animal trachea including thyroid cartilage and trachea back-end. • 8): The trachea was set in test tube with 1.5 ml 5% NaHCO3. • 9): The experiment of every animal was completed in 3 min. […] X indicates OD value; Y indicates excretion account of Phenol Red. • 14): Rectified excretion account of Phenol Red was calculated by account of Phenol Red and weight of animal. Statistical significance of the data was determined by Student's t-test with SPSS 8.0. Rectified excretion account of Phenol Red= Account of Phenol Red (ng) / weight of animal (kg).

SMILES	R Value (mice [1]; sample concentration 0.5 mg/ml) [%]	R Value (mice [1]; sample concentration 1.5 mg/ml) [%]	R Value (mice [1]; sample concentration 4.5 mg/ml) [%]	EDT50 (mice [1]; sample concentration 0.5 mg/ml) [s]	EDT50 (mice [1]; sample concentration 1.5 mg/ml) [s]	EDT50 (mice [1]; sample concentration 4.5 mg/ml) [s]	Effect of relieving cough (mice [1]; sample concentration 0.5 mg/ml)	Effect of relieving cough (mice [1]; sample concentration 1.5 mg/ml)	Effect of relieving cough (mice [1]; sample concentration 4.5 mg/ml)	Dispel phlegm ratio (mice [2]; 5 mg/kg) [%]	Dispel phlegm ratio (mice [2]; 15 mg/kg) [%]	Dispel phlegm ratio (mice [2]; 45 mg/kg) [%]	Excretion quantity of Phenol Red (mice [2]; 5 mg/kg) [ng]	Rectified excretion quantity of Phenol Red (mice [2]; 5 mg/kg) [ng/kg]	Excretion quantity of Phenol Red (mice [2]; 15 mg/kg) [ng]	Rectified excretion quantity of Phenol Red (mice [2]; 15 mg/kg) [ng/kg]	Excretion quantity of Phenol Red (mice [2]; 45 mg/kg) [ng]	Rectified excretion quantity of Phenol Red (mice [2]; 45 mg/kg) [ng/kg]	other results
O=C1CC(c2ccc(O)cc2)Oc2cc(O)cc(O)c21 (stereo not drawn) [Naringenin, 4', 5, 7 -trihydroxyflavanone]	131.85	169.85	171.23	51.29	66.07	66.61	effect (the drug was provided with effect of relieve a cough if R>130%)	remarkably effect (The drug was provided with remarkable effect of relieve a cough if R>150%)	remarkably effect (The drug was provided with remarkable effect of relieve a cough if R>150%)	–	–	–	–	–	–	–	–	–	time of appearing tussis (mice [1]; compared with Dextromethorphan Hydrobromide (positive control group)): statistical significance prolonging the time
C[C@@H]1O[C@@H](O[C@H]2[C@H](Oc3cc(O)c4c(c3)O[C@H](c3ccc(O)cc3)CC4=O)O[C@H](CO)[C@@H](O)[C@@H]2O)[C@H](O)[C@H](O)[C@H]1O [Naringin, 4', 5', 7-trihydroxyflavanone-7-rhamnoneglucoside]	–	–	–	–	–	–	–	–	–	159.02	173.12	416.72	0.4914 ± 0.2215	25.5811 ± 11.8338	0.5296 ± 0.2195	26.7597 ± 13.1502	1.1488 ± 0.2431	64.4162 ± 18.7239	dispel phlegm effect (mice [2]; high dose group compared to positive control group of Tankejing): statistical better than Tankejing; exudates increase of mice trachea (mice [2]; three doses (low, middle, high), versus negative control group): statistical significance stimulate the exudates increase of mice trachea
O=C1C[C@@H](c2ccc(O)cc2)Oc2cc(O)cc(O)c21 [sodium salt of Naringenin]	142.3	178.6	189.1	55.35	69.48	73.56	effect (the drug was provided with effect of relieve a cough if R>130%)	remarkably effect (The drug was provided with remarkable effect of relieve a cough if R>150%)	remarkably effect (The drug was provided with remarkable effect of relieve a cough if R>150%)	–	–	–	–	–	–	–	–	–	–
C[C@@H]1O[C@@H](O[C@H]2[C@H](Oc3cc(O)c4c(c3)O[C@H](c3ccc(O)cc3)CC4=O)O[C@H](CO)[C@@H](O)[C@@H]2O)[C@H](O)[C@H](O)[C@H]1O [sodium salt of Naringin]	–	–	–	–	–	–	–	–	–	169.37	189.65	432.71	0.5250 ± 0.1265	26.1805 ± 6.9069	0.5748 ± 0.1417	29.3153 ± 7.7189	1.3115 ± 0.3232	66.8867 ± 17.6117	–
